Measured values: DBAASP
Values after ≈ are worked out from the molar mass of the structure shown. Values joined by “and” are separate entries in the source; they are usually repeats but may differ in a detail not shown here. Identical values can stand only once. Each block holds one compound with its values, some of them ahead of it.

Legend:
Assay in all cases: ≥ marks a high value that may be exact or a test limit, other limits are often not marked, values filed in µg/mL are converted to µM
Escherichia coli PFL6 = test system: Escherichia coli PFL6
[1] = test system: Staphylococcus aureus ATCC 25923
Escherichia coli BL21 = test system: Escherichia coli BL21
[2] = test system: Candida albicans ATCC 10231
Escherichia coli PFH1 = test system: Escherichia coli PFH1
[3] = test system: Salmonella enterica subsp. enterica serovar Enteritidis ATCC 13076
Escherichia coli PFH13 = test system: Escherichia coli PFH13
[4] = test system: Pseudomonas aeruginosa ATCC 27853
[5] = test system: Bacillus cereus ATCC 11778
[6] = test system: Klebsiella pneumoniae CCRC 10694
Salmonella enterica = test system: Salmonella enterica
Escherichia coli JM109 = test system: Escherichia coli JM109
Citrobacter koseri = test system: Citrobacter koseri
Pseudomonas aeruginosa = test system: Pseudomonas aeruginosa
[7] = test system: Staphylococcus aureus CCRC 15211
[8] = test system: Vibrio parahaemolyticus CCRC 10806
[9] = test system: Streptococcus alactolyticus
Staphylococcus xylosus = test system: Staphylococcus xylosus
[10] = test system: Salmonella typhimurium CCRC 12947
[11] = test system: Listeria monocytogenes ATCC 15313
Escherichia coli PFH12 = test system: Escherichia coli PFH12
[12] = test system: Enterococcus faecalis ATCC 29212
[13] = test system: Staphylococcus aureus CCRC 12652
[14] = test system: Candida albicans ATCC 37092
[15] = test system: Escherichia coli ATCC 25922
[16] = test system: Staphylococcus aureus ATCC 29213
[17] = test system: Klebsiella pneumoniae ATCC 13883
[18] = test system: Staphylococcus aureus ATCC BAA-39
[19] = test system: Listeria monocytogenes ATCC 19115
[20] = test system: Staphylococcus aureus ATCC 43300
Staphylococcus aureus = test system: Staphylococcus aureus
Escherichia coli 363 = test system: Escherichia coli 363
[21] = test system: Pseudomonas aeruginosa E411-17
Escherichia coli E423-17 = test system: Escherichia coli E423-17
[22] = test system: Acinetobacter baumannii B28-16
[23] = test system: Staphylococcus aureus USA 300
[24] = test system: Klebsiella pneumoniae E406-17
Acinetobacter baumannii = test system: Acinetobacter baumannii
[25] = test system: Streptococcus pneumoniae ATCC 49619
Escherichia coli 4530 = test system: Escherichia coli 4530
Escherichia coli 170 = test system: Escherichia coli 170
[26] = test system: Klebsiella pneumoniae 913
[27] = test system: Pseudomonas aeruginosa 4677
[28] = test system: Enterobacter cloacae 2524
Salmonella typhimurium = test system: Salmonella typhimurium
[29] = test system: Enterobacter cloacae 6780
[30] = test system: Klebsiella pneumoniae 1625

MIC (Escherichia coli PFL6): 5.28 µM (≈ 7.99 µg/mL)
MIC [1]: 4 µM (≈ 6.05 µg/mL)
MIC (Escherichia coli BL21): 2.64 µM (≈ 4 µg/mL)
MIC [2]: 4 µM (≈ 6.05 µg/mL)
MIC (Escherichia coli PFH1): 3.74 µM (≈ 5.65 µg/mL)
MIC [3]: 4 µM (≈ 6.05 µg/mL)
MIC (Escherichia coli PFH13): 3.74 µM (≈ 5.65 µg/mL)
MIC [4]: ≥ 32 µM
MIC [5]: 8 µM (≈ 12.1 µg/mL)
MIC [6]: 21.1 µM (≈ 32 µg/mL)
MIC (Salmonella enterica): 10.6 µM (≈ 16 µg/mL)
MIC (Escherichia coli JM109): 5.28 µM (≈ 7.99 µg/mL)
MIC (Citrobacter koseri): 2.64 µM (≈ 4 µg/mL)
MIC (Pseudomonas aeruginosa): 63.4 µM (≈ 95.9 µg/mL)
MIC [7]: 21.1 µM (≈ 32 µg/mL)
MIC [9]: 5.28 µM (≈ 7.99 µg/mL)
MIC (Staphylococcus xylosus): 0.991 µM (≈ 1.5 µg/mL)
MIC [10]: 21.1 µM (≈ 32 µg/mL)
MIC [11]: 4 µM (≈ 6.05 µg/mL)
MIC (Escherichia coli PFH12): 3.74 µM (≈ 5.65 µg/mL)
MIC [12]: ≥ 32 µM
MIC [13]: 10.6 µM (≈ 16 µg/mL)
Compound: CC[C@H](C)[C@H](N)C(=O)N[C@@H](CC(N)=O)C(=O)N[C@@H](CC(C)C)C(=O)N[C@@H](CCCCN)C(=O)N[C@@H](C)C(=O)N[C@H](C(=O)N[C@@H](C)C(=O)N[C@@H](C)C(=O)N[C@@H](CC(C)C)C(=O)N[C@@H](C)C(=O)N[C@@H](CCCCN)C(=O)N[C@@H](CCCCN)C(=O)N[C@@H](CC(C)C)C(=O)N[C@@H](Cc1ccccc1)C(N)=O)[C@@H](C)CC [INLKAIAALAKKLF]
MIC [8]: 10.6 µM (≈ 16 µg/mL)

MIC [14]: 30.5 µM (≈ 51.7 µg/mL)
MIC [15]: > 500 µM
MIC [16]: > 500 µM
Compound: CC[C@H](C)[C@H](NC(=O)[C@@H]1CCCN1C(=O)[C@H](CCCN=C(N)N)NC(=O)[C@@H]1CCCN1C(=O)CNC(=O)[C@@H]1CCCN1C(=O)[C@H](CCCN=C(N)N)NC(=O)[C@@H]1CCCN1C(=O)[C@H](Cc1ccccc1)NC(=O)[C@@H]1CCCN1C(=O)[C@H](CC(C)C)NC(=O)[C@@H]1CCCN1)C(=O)N1CCC[C@H]1C(=O)N[C@@H](CCCN=C(N)N)C(=O)N1CCC[C@H]1C(=O)O [PLPFPRPGPRPIPRP]

MIC [1]: 2 µM (≈ 4.72 µg/mL)
MIC [17]: 2 µM (≈ 4.72 µg/mL)
MIC [18]: 2 µM and 2.83 µM
MIC [3]: 2 µM (≈ 4.72 µg/mL)
MIC [19]: 2 µM (≈ 4.72 µg/mL)
MIC [20]: 2 µM (≈ 4.72 µg/mL)
MIC [15]: 4 µM and 5.66 µM
Compound: CC[C@H](C)[C@H](NC(=O)[C@H](CCCCN)NC(=O)[C@H](CCCN=C(N)N)NC(=O)[C@H](CC(C)C)NC(=O)[C@H](Cc1ccccc1)NC(=O)[C@H](CCCN=C(N)N)NC(=O)CNC(=O)[C@H](Cc1ccccc1)NC(=O)[C@H](CCCN=C(N)N)NC(=O)CNC(=O)[C@H](CCCN=C(N)N)NC(=O)[C@H](CCC(N)=O)NC(=O)[C@@H](NC(=O)[C@@H](N)CC(C)C)C(C)C)C(=O)N[C@@H](CCCN=C(N)N)C(=O)N[C@@H](CCCN=C(N)N)C(=O)N[C@@H](Cc1ccccc1)C(=O)N[C@@H](CCCN=C(N)N)C(=O)O [LVQRGRFGRFLRKIRRFR]

MIC (Staphylococcus aureus): 9 µM (≈ 20.3 µg/mL)
MIC (Escherichia coli 363): ≥ 50 µM
Compound: CC(C)C[C@H](NC(=O)[C@H](CCCN=C(N)N)NC(=O)[C@H](CCCN=C(N)N)NC(=O)[C@H](CC(C)C)NC(=O)[C@H](CC(C)C)NC(=O)[C@H](CCCN=C(N)N)NC(=O)[C@H](CCCN=C(N)N)NC(=O)[C@H](CC(C)C)NC(=O)[C@H](CC(C)C)NC(=O)[C@H](CCCN=C(N)N)NC(=O)[C@H](CCCN=C(N)N)NC(=O)[C@H](CC(C)C)NC(=O)[C@H](CCCN=C(N)N)NC(=O)[C@@H](N)CCCN=C(N)N)C(=O)N[C@@H](CCCN=C(N)N)C(=O)N[C@@H](CCCN=C(N)N)C(N)=O [RRLRRLLRRLLRRLRR]

MIC [1]: 1.8 µM (≈ 2.5 µg/mL)
MIC [21]: 8 µM (≈ 11.1 µg/mL)
MIC (Escherichia coli E423-17): 8 µM (≈ 11.1 µg/mL)
MIC [22]: ≥ 32 µM
MIC [23]: 5.66 µM (≈ 7.84 µg/mL)
MIC [4]: 3.6 µM (≈ 5 µg/mL)
MIC [24]: ≥ 32 µM
MIC [15]: 5.41 µM (≈ 7.49 µg/mL)
Compound: NC(=O)[C@H](CCCN=C(N)N)NC(=O)[C@H](Cc1c[nH]c2ccccc12)NC(=O)[C@H](Cc1c[nH]c2ccccc12)NC(=O)[C@H](CCCN=C(N)N)NC(=O)[C@H](Cc1c[nH]c2ccccc12)NC(=O)[C@H](Cc1c[nH]c2ccccc12)NC(=O)[C@H](CCCN=C(N)N)NC(=O)[C@@H](N)CCCN=C(N)N [RRWWRWWR]

MIC (Acinetobacter baumannii): 2.21 µM (≈ 4.35 µg/mL)
MIC [25]: ≥ 50 µM
MIC (Escherichia coli 4530): ≥ 50 µM
MIC (Escherichia coli 170): 1.56 µM (≈ 3.07 µg/mL)
MIC [26]: 6.25 µM (≈ 12.3 µg/mL)
MIC [27]: ≥ 50 µM
MIC [28]: ≥ 50 µM
MIC (Salmonella typhimurium): 4.38 µM (≈ 8.63 µg/mL)
MIC [29]: 3.12 µM (≈ 6.14 µg/mL)
MIC [15]: 1.56 µM (≈ 3.07 µg/mL)
MIC [30]: 3.12 µM (≈ 6.14 µg/mL)
Compound: CC[C@H](C)[C@H](NC(=O)CN)C(=O)N[C@@H](CC(C)C)C(=O)N[C@@H](CC(N)=O)C(=O)N[C@H](C(=O)N[C@H](C(=O)N[C@@H](CCCCN)C(=O)N[C@@H](CO)C(=O)N[C@H](C(=O)N[C@@H](C)C(=O)N[C@@H](CO)C(=O)N[C@@H](CCCCN)C(=O)N[C@@H](CC(C)C)C(=O)N[C@@H](CCCCN)C(=O)N[C@@H](CCCN=C(N)N)C(=O)N[C@@H](CCCCN)C(=O)N[C@@H](C)C(=O)N[C@@H](CCCCN)C(=O)O)[C@@H](C)CC)[C@@H](C)CC)[C@@H](C)O [GILNTIKSIASKLKRKAK]
